# Legend:
# [1] = tested on: wheat fusarium blight microorganism (Fusarium graminearum); assay: microbe, parasite or virus in culture; type: cell-based; details: read-out: growth inhibition grade
# [2] = tested on: Cladosporium microorganism (Cladosporium sp.); assay: Antimicroorganism effect, mycelial extension on PDA plate; type: cell-based; details: PDA plate medium, 50 mg/l, 1 to 3 days, read-out: growth inhibition grade
# [3] = tested on: rice seedling blight microorganism (Rhizopus) (Rhizopus oryzae); assay: as above; type: cell-based; details: Rhizopus arrhizus, PDA plate medium, 50 mg/l, 1 to 3 days, read-out: growth inhibition grade
# [4] = tested on: sugar beet cercospora leaf spot microorganism (Cercospora beticola); assay: as above; type: cell-based; details: PDA plate medium, 50 mg/l, 1 to 3 days, read-out: growth inhibition grade
# [5] = tested on: wheat septoria bloth microorganism (Septoria tritici); assay: as above; type: cell-based; details: Zymoseptoria tritici, PDA plate medium, 50 mg/l, 1 to 3 days, read-out: growth inhibition grade
# [6] = tested on: Tricoderma microorganism (Trichoderma sp.); assay: as above; type: cell-based; details: PDA plate medium, 50 mg/l, 1 to 3 days, read-out: growth inhibition grade
# [7] = tested on: rice blast microorganism (Pyricularia oryzae); assay: microbe, parasite or virus in culture; type: cell-based; details: read-out: growth inhibition grade
# [8] = tested on: anthracnose microorganism (Glomerella cingulata); assay: Antimicroorganism effect, mycelial extension on PDA plate; type: cell-based; details: Colletotrichum gloeosporioides, PDA plate medium, 50 mg/l, 1 to 3 days, read-out: growth inhibition grade
# [9] = tested on: ricesheath blight microorganism (Rhizoctonia solani); assay: as above; type: cell-based; details: PDA plate medium, 50 mg/l, 1 to 3 days, read-out: growth inhibition grade
# [10] = tested on: barley scald microorganism (Rhynchosporium secalis); assay: as above; type: cell-based; details: PDA plate medium, 50 mg/l, 1 to 3 days, read-out: growth inhibition grade
# [11] = tested on: wood denaturing microorganism (Tyromyces palustris); assay: as above; type: cell-based; details: PDA plate medium, 50 mg/l, 1 to 3 days, read-out: growth inhibition grade
# [12] = tested on: barley loose smut microorganism (Ustilago nuda); assay: as above; type: cell-based; details: PDA plate medium, 50 mg/l, 1 to 3 days, read-out: growth inhibition grade
# [13] = tested on: cucumber fusarium wilt microorganism (Fusarium oxysporum); assay: as above; type: cell-based; details: PDA plate medium, 50 mg/l, 1 to 3 days, read-out: growth inhibition grade
# [14] = tested on: wheat eye spot microorganism (Pseudocercosporella herpotrichoides); assay: as above; type: cell-based; details: Oculimacula yallundae, PDA plate medium, 50 mg/l, 1 to 3 days, read-out: growth inhibition grade
# [15] = tested on: wheat take-all microorganism (Gaeumannomyces graminis); assay: as above; type: cell-based; details: PDA plate medium, 50 mg/l, 1 to 3 days, read-out: growth inhibition grade
# [16] = tested on: Aureobasidium microorganism (Aureobasidium sp.); assay: as above; type: cell-based; details: PDA plate medium, 50 mg/l, 1 to 3 days, read-out: growth inhibition grade
# [17] = tested on: wheat stagonospora blotch microorganism (Phaeosphaeria nodorum); assay: as above; type: cell-based; details: Parastagonospora nodorum, PDA plate medium, 50 mg/l, 1 to 3 days, read-out: growth inhibition grade
# [18] = tested on: Aspergillus microorganism (Aspergillus sp.); assay: as above; type: cell-based; details: PDA plate medium, 50 mg/l, 1 to 3 days, read-out: growth inhibition grade
# [19] = tested on: apple alternaria blotch microorganism (Alternaria alternata); assay: as above; type: cell-based; details: PDA plate medium, 50 mg/l, 1 to 3 days, read-out: growth inhibition grade
# [20] = tested on: Mucor microorganism (Mucor sp.); assay: as above; type: cell-based; details: PDA plate medium, 50 mg/l, 1 to 3 days, read-out: growth inhibition grade
# [21] = tested on: sclerotinia rot microorganism (Sclerotinia sclerotiorum); assay: as above; type: cell-based; details: PDA plate medium, 50 mg/l, 1 to 3 days, read-out: growth inhibition grade
# [22] = tested on: wood denaturing microorganism (Coriolus versicolor); assay: as above; type: cell-based; details: Trametes versicolor, PDA plate medium, 50 mg/l, 1 to 3 days, read-out: growth inhibition grade
# [23] = tested on: wheat pink snow mold microorganism (Microdochium nivale); assay: as above; type: cell-based; details: PDA plate medium, 50 mg/l, 1 to 3 days, read-out: growth inhibition grade
# [24] = tested on: rice bakanae disease microorganism (Giberella fujikuroi); assay: as above; type: cell-based; details: PDA plate medium, 50 mg/l, 1 to 3 days, read-out: growth inhibition grade
# [25] = tested on: citrous blue mold microorganism (Penicillium italicum); assay: as above; type: cell-based; details: PDA plate medium, 50 mg/l, 1 to 3 days, read-out: growth inhibition grade
# [26] = tested on: barley stripe microorganism (Pyrenophora graminea); assay: as above; type: cell-based; details: PDA plate medium, 50 mg/l, 1 to 3 days, read-out: growth inhibition grade
# [27] = tested on: Curvularia microorganism (Curvularia sp.); assay: as above; type: cell-based; details: PDA plate medium, 50 mg/l, 1 to 3 days, read-out: growth inhibition grade
# [28] = tested on: penicillium microorganism (Penicillium sp.); assay: as above; type: cell-based; details: PDA plate medium, 50 mg/l, 1 to 3 days, read-out: growth inhibition grade
# [29] = tested on: gray mold microorganism (Botritis cinerea); assay: as above; type: cell-based; details: PDA plate medium, 50 mg/l, 1 to 3 days, read-out: growth inhibition grade
# [30] = tested on: cucumber gray mold microorganism; assay: Cucumber gray mold preventing effect assay; type: in vivo, Botrytis cinerea; details: analogous assay at 25 mg/l
# Method: The sprayed leaves were air-dried, and loaded with a paper disc (8 mm in diameter) soaked with a spore suspension of a cucumber gray mold microorganism, and kept at 20 degrees C. and a high humidity. 4 Days after inoculation, the cucumber gray mold severity was investigated, and the protective value was calculated by the following equation. [table]
Structure (SMILES),melting point [°C],inhibition at 50 µg/mL [1] [%],inhibition at 50 µg/mL [2] [%],inhibition at 50 µg/mL [3] [%],inhibition at 50 µg/mL [4] [%],inhibition at 50 µg/mL [5] [%],inhibition at 50 µg/mL [6] [%],inhibition at 50 µg/mL [7] [%],inhibition at 50 µg/mL [8] [%],inhibition at 50 µg/mL [9] [%],inhibition at 50 µg/mL [10] [%],inhibition at 50 µg/mL [11] [%],inhibition at 50 µg/mL [12] [%],inhibition at 50 µg/mL [13] [%],inhibition at 50 µg/mL [14] [%],inhibition at 50 µg/mL [15] [%],inhibition at 50 µg/mL [16] [%],inhibition at 50 µg/mL [17] [%],inhibition at 50 µg/mL [18] [%],inhibition at 50 µg/mL [19] [%],also measured
"OC1(Cn2cncn2)C(Cc2ccc(Cl)cc2)CCC12CC2 (single isomer, unassigned) [Compound I-2, 5-(4-chlorobenzyl)-4-(1H-1,2,4-triazol-1-ylmethyl)-4-spiro[2.4]heptanol]",166 to 167,,,,,,,,,,,,,,,,,,,,
"OC1(Cn2cncn2)C(Cc2cccc(Cl)c2)CCC12CC2 (single isomer, unassigned) [Compound I-3, 5-(3-chlorobenzyl)-4-(1H-1,2,4-triazol-1-ylmethyl)-4-spiro[2.4]heptanol]",84.5 to 85.5,> 90,> 90,70 to 90,> 90,> 90,> 90,> 90,> 90,70 to 90,> 90,> 90,70 to 90,> 90,> 90,> 90,70 to 90,> 90,> 90,70 to 90,inhibition at 50 µg/mL [20]: 70 to 90%; inhibition at 50 µg/mL [21]: > 90%; inhibition at 50 µg/mL [22]: > 90%; inhibition at 50 µg/mL [23]: 70 to 90%; inhibition at 50 µg/mL [24]: > 90%; inhibition at 50 µg/mL [25]: > 90%; inhibition at 50 µg/mL [26]: > 90%; inhibition at 50 µg/mL [27]: 70 to 90%; inhibition at 50 µg/mL [28]: > 90%; inhibition at 50 µg/mL [29]: > 90%
"OC1(Cn2cncn2)C(Cc2cccc(Cl)c2)CCC12CC2 (single isomer, unassigned) [Compound I-4, 5-(3-chlorobenzyl)-4-(1H-1,2,4-triazol-1-ylmethyl)-4-spiro[2.4]heptanol]",120 to 121,,,,,,,,,,,,,,,,,,,,
"OC1(Cn2cncn2)C(Cc2ccc(F)cc2)CCC12CC2 (single isomer, unassigned) [Compound I-7, 5-(4-fluorobenzyl)-4-(1H-1,2,4-triazol-1-ylmethyl)-4-spiro[2.4]heptanol]",89 to 90,> 90,> 90,70 to 90,> 90,> 90,> 90,> 90,> 90,70 to 90,> 90,> 90,70 to 90,> 90,> 90,> 90,70 to 90,> 90,> 90,70 to 90,inhibition at 50 µg/mL [20]: 70 to 90%; inhibition at 50 µg/mL [21]: > 90%; inhibition at 50 µg/mL [22]: > 90%; inhibition at 50 µg/mL [23]: 70 to 90%; inhibition at 50 µg/mL [24]: > 90%; inhibition at 50 µg/mL [25]: > 90%; inhibition at 50 µg/mL [26]: > 90%; inhibition at 50 µg/mL [27]: 70 to 90%; inhibition at 50 µg/mL [28]: > 90%; inhibition at 50 µg/mL [29]: > 90%
"OC1(Cn2cncn2)C(Cc2ccc(F)cc2)CCC12CC2 (single isomer, unassigned) [Compound I-8, 5-(4-fluorobenzyl)-4-(1H-1,2,4-triazol-1-ylmethyl)-4-spiro[2.4]heptanol]",139 to 140,,,,,,,,,,,,,,,,,,,,
"C[C@]12C[C@H]1C[C@H](Cc1ccc(Cl)cc1)[C@@]2(O)Cn1cncn1 (stereo in doubt) [Comparative Compound (A), 3-(4-chlorobenzyl)-1-methyl-2-(1H-1,2,4-triazol-1-ylmethyl)bicyclo[3.1.0]hexan-2-ol, reference compound]",,,,,,,,,,,,,,,,,,,,,Controlling value [30]: 54%
"CC1(C)CC12CCC(Cc1ccc(Cl)cc1)C2(O)Cn1cncn1 (stereo not drawn) [Compound I-101, 5-(4-chlorobenzyl)-1,1-dimethyl-4-(1H-1,2,4-triazol-1-ylmethyl)-4-spiro[2.4]heptanol]",,> 90,> 90,70 to 90,> 90,> 90,> 90,> 90,> 90,70 to 90,> 90,> 90,70 to 90,> 90,> 90,> 90,70 to 90,> 90,> 90,70 to 90,inhibition at 50 µg/mL [20]: 70 to 90%; inhibition at 50 µg/mL [21]: > 90%; inhibition at 50 µg/mL [22]: > 90%; inhibition at 50 µg/mL [23]: 70 to 90%; inhibition at 50 µg/mL [24]: > 90%; inhibition at 50 µg/mL [25]: > 90%; inhibition at 50 µg/mL [26]: > 90%; inhibition at 50 µg/mL [27]: 70 to 90%; inhibition at 50 µg/mL [28]: > 90%; inhibition at 50 µg/mL [29]: > 90%
